Measurements published in ChEMBL document CHEMBL1201862, “PubChem BioAssay data set” (2004).
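Grown in 96-well plates, cells were treated for 48 hours with each compound at five concentrations. Insufficient inhibition: endpoint recorded as highest concentration tested. Here, GI50 denotes the concentration required for 50% inhibition of growth.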 The source made the active and inactive calls. No stated cut-off is given here; in the data, active = GI50 up to about 1.1 µM and inactive = higher.

What was measured:
Assay in all cases: NCI tumour cell line growth inhibition, 48 h
[1] = system: 786-0
[2] = system: A498
[3] = system: A549
[4] = system: ACHN
[5] = system: CAKI-1
[6] = system: CCRF-CEM
[7] = system: COLO 205
[8] = system: DU-145
[9] = system: EKVX
[10] = system: HCC 2998
[11] = system: HCT-116
[12] = system: HCT-15
[13] = system: HL-60
[14] = system: HOP-62
[15] = system: HOP-92
[16] = system: HT-29
[17] = system: Hs-578T
[18] = system: IGROV-1
[19] = system: K562
[20] = system: KM12
[21] = system: LOX IMVI
[22] = system: M14
[23] = system: MCF7
[24] = system: MDA-MB-231
[25] = system: MDA-MB-435
[26] = system: MDA-N
[27] = system: MOLT-4
[28] = system: Malme-3M
[29] = system: NCI-H226
[30] = system: NCI-H23
[31] = system: NCI-H460
[32] = system: NCI/ADR-RES
[33] = system: OVCAR-3
[34] = system: OVCAR-4
[35] = system: OVCAR-5
[36] = system: OVCAR-8
[37] = system: PC-3
[38] = system: RPMI-8226
[39] = system: RXF 393
[40] = system: SF-268
[41] = system: SF-295
[42] = system: SF-539
[43] = system: SK-MEL-28
[44] = system: SK-MEL-2
[45] = system: SK-OV-3
[46] = system: SN12C
[47] = system: SNB-19
[48] = system: SNB-75
[49] = system: SR
[50] = system: SW-620
[51] = system: T47D
[52] = system: TK-10
[53] = system: U-251
[54] = system: UACC-257
[55] = system: UACC-62
[56] = system: UO-31
[57] = system: NCI-H522
[58] = system: SK-MEL-5

Structure (SMILES): CC1CCCCN1CC(=O)c1ccc2c(c1)Sc1ccccc1O2 (stereo not drawn)
- GI50 [1]: 14.1 µM (inactive)
- GI50 [2]: 18.8 µM (inactive)
- GI50 [3]: 14.6 µM (inactive)
- GI50 [4]: 15.3 µM (inactive)
- GI50 [5]: 17.9 µM (inactive)
- GI50 [6]: 16.5 µM (inactive)
- GI50 [7]: 24 µM (inactive)
- GI50 [8]: 26.7 µM (inactive)
- GI50 [9]: 13.3 µM (inactive)
- GI50 [10]: 17.7 µM (inactive)
- GI50 [11]: 14.2 µM (inactive)
- GI50 [12]: 19.7 µM
- GI50 [13]: 10.2 µM (inactive)
- GI50 [14]: 15.5 µM (inactive)
- GI50 [15]: 13.2 µM (inactive)
- GI50 [16]: 8.61 µM (inactive)
- GI50 [17]: 10.8 µM (inactive)
- GI50 [18]: 6.49 µM (inactive)
- GI50 [19]: 30.3 µM (inactive)
- GI50 [20]: 16.5 µM (inactive)
- GI50 [21]: 9.93 µM (inactive)
- GI50 [22]: 19.5 µM (inactive)
- GI50 [23]: 16 µM (inactive)
- GI50 [24]: 24.7 µM (inactive)
- GI50 [25]: 13.8 µM (inactive)
- GI50 [26]: 15.2 µM (inactive)
- GI50 [27]: 19.3 µM (inactive)
- GI50 [28]: 13.5 µM (inactive)
- GI50 [29]: 12.9 µM (inactive)
- GI50 [30]: 15.2 µM (inactive)
- GI50 [31]: 14.2 µM (inactive)
- GI50 [32]: 16.7 µM (inactive)
- GI50 [33]: 14.4 µM (inactive)
- GI50 [34]: 13.2 µM (inactive)
- GI50 [35]: 18.1 µM (inactive)
- GI50 [36]: 15 µM (inactive)
- GI50 [37]: 11.8 µM (inactive)
- GI50 [38]: > 100 µM (inactive)
- GI50 [39]: 13.8 µM (inactive)
- GI50 [40]: 18.7 µM (inactive)
- GI50 [41]: 16.5 µM (inactive)
- GI50 [42]: 16.9 µM (inactive)
- GI50 [43]: 16.6 µM (inactive)
- GI50 [44]: 17.9 µM (inactive)
- GI50 [45]: 16.4 µM (inactive)
- GI50 [46]: 18.7 µM (inactive)
- GI50 [47]: 17.9 µM (inactive)
- GI50 [48]: 11 µM (inactive)
- GI50 [49]: 15.3 µM (inactive)
- GI50 [50]: 19.1 µM (inactive)
- GI50 [51]: 20.7 µM (inactive)
- GI50 [52]: 18.7 µM (inactive)
- GI50 [53]: 14.1 µM (inactive)
- GI50 [54]: 18.4 µM (inactive)
- GI50 [55]: 13.3 µM (inactive)
- GI50 [56]: 12.3 µM (inactive)

Structure (SMILES): CC(=O)[C@H]1[C@@H](OCc2ccccc2)O[N+]([O-])=C(C)[C@@H]1c1ccccc1
- GI50 [1]: 17.6 µM (inactive)
- GI50 [2]: > 100 µM (inactive)
- GI50 [3]: 53.2 µM (inactive)
- GI50 [4]: 26.4 µM (inactive)
- GI50 [5]: 23.6 µM (inactive)
- GI50 [6]: 14.9 µM (inactive)
- GI50 [7]: 42.7 µM (inactive)
- GI50 [8]: 43.8 µM (inactive)
- GI50 [9]: 53.3 µM (inactive)
- GI50 [10]: > 100 µM (inactive)
- GI50 [12]: 27.7 µM
- GI50 [13]: 19 µM (inactive)
- GI50 [14]: > 100 µM (inactive)
- GI50 [15]: 24.8 µM (inactive)
- GI50 [16]: 19.6 µM (inactive)
- GI50 [17]: 19.9 µM (inactive)
- GI50 [18]: 35.8 µM (inactive)
- GI50 [19]: 14.5 µM (inactive)
- GI50 [20]: 37.4 µM (inactive)
- GI50 [21]: 21 µM (inactive)
- GI50 [22]: 36.1 µM (inactive)
- GI50 [23]: 30.8 µM (inactive)
- GI50 [24]: 34.6 µM (inactive)
- GI50 [25]: 45 µM (inactive)
- GI50 [26]: 41.7 µM (inactive)
- GI50 [27]: 17.2 µM (inactive)
- GI50 [28]: 26.4 µM (inactive)
- GI50 [29]: 52.1 µM (inactive)
- GI50 [30]: 54.7 µM (inactive)
- GI50 [31]: 53.8 µM (inactive)
- GI50 [57]: 13.1 µM (inactive)
- GI50 [32]: 39.1 µM (inactive)
- GI50 [33]: 24.7 µM (inactive)
- GI50 [34]: 47.1 µM (inactive)
- GI50 [35]: > 100 µM (inactive)
- GI50 [36]: 30.4 µM (inactive)
- GI50 [37]: 36.1 µM (inactive)
- GI50 [38]: 14.7 µM (inactive)
- GI50 [39]: 17.3 µM (inactive)
- GI50 [40]: 37.2 µM (inactive)
- GI50 [41]: 75.2 µM (inactive)
- GI50 [42]: 18.6 µM (inactive)
- GI50 [43]: 27.2 µM (inactive)
- GI50 [44]: 63.2 µM (inactive)
- GI50 [58]: 48.5 µM (inactive)
- GI50 [45]: > 100 µM (inactive)
- GI50 [47]: 97.3 µM (inactive)
- GI50 [48]: > 100 µM (inactive)
- GI50 [49]: 19.2 µM (inactive)
- GI50 [50]: 17.4 µM (inactive)
- GI50 [51]: 21.3 µM (inactive)
- GI50 [52]: 56.1 µM (inactive)
- GI50 [53]: 44.5 µM (inactive)
- GI50 [54]: 34.7 µM (inactive)
- GI50 [55]: 49.2 µM (inactive)
- GI50 [56]: 20.8 µM (inactive)

Structure (SMILES): CC1=CCC[C@]2(C)C1=CC(=O)O[C@H]2c1ccoc1
- GI50 [1]: > 100 µM (inactive)
- GI50 [2]: > 100 µM (inactive)
- GI50 [3]: > 100 µM (inactive)
- GI50 [4]: > 100 µM (inactive)
- GI50 [5]: > 100 µM (inactive)
- GI50 [6]: > 100 µM (inactive)
- GI50 [7]: > 100 µM (inactive)
- GI50 [8]: > 100 µM (inactive)
- GI50 [9]: > 100 µM (inactive)
- GI50 [10]: > 100 µM (inactive)
- GI50 [11]: > 100 µM (inactive)
- GI50 [12]: > 100 µM
- GI50 [13]: 49.8 µM (inactive)
- GI50 [14]: > 100 µM (inactive)
- GI50 [15]: > 100 µM (inactive)
- GI50 [16]: > 100 µM (inactive)
- GI50 [17]: > 100 µM (inactive)
- GI50 [18]: > 100 µM (inactive)
- GI50 [19]: > 100 µM (inactive)
- GI50 [20]: > 100 µM (inactive)
- GI50 [21]: > 100 µM (inactive)
- GI50 [23]: > 100 µM (inactive)
- GI50 [24]: > 100 µM (inactive)
- GI50 [25]: > 100 µM (inactive)
- GI50 [26]: > 100 µM (inactive)
- GI50 [27]: > 100 µM (inactive)
- GI50 [28]: > 100 µM (inactive)
- GI50 [29]: > 100 µM (inactive)
- GI50 [30]: > 100 µM (inactive)
- GI50 [31]: > 100 µM (inactive)
- GI50 [57]: > 100 µM (inactive)
- GI50 [32]: > 100 µM (inactive)
- GI50 [33]: > 100 µM (inactive)
- GI50 [34]: > 100 µM (inactive)
- GI50 [35]: > 100 µM (inactive)
- GI50 [36]: > 100 µM (inactive)
- GI50 [37]: > 100 µM (inactive)
- GI50 [38]: > 100 µM (inactive)
- GI50 [39]: > 100 µM (inactive)
- GI50 [40]: > 100 µM (inactive)
- GI50 [41]: > 100 µM (inactive)
- GI50 [43]: > 100 µM (inactive)
- GI50 [44]: > 100 µM (inactive)
- GI50 [58]: > 100 µM (inactive)
- GI50 [45]: > 100 µM (inactive)
- GI50 [46]: > 100 µM (inactive)
- GI50 [47]: 23.6 µM (inactive)
- GI50 [48]: > 100 µM (inactive)
- GI50 [49]: > 100 µM (inactive)
- GI50 [50]: > 100 µM (inactive)
- GI50 [51]: > 100 µM (inactive)
- GI50 [52]: > 100 µM (inactive)
- GI50 [53]: > 100 µM (inactive)
- GI50 [54]: > 100 µM (inactive)
- GI50 [55]: > 100 µM (inactive)
- GI50 [56]: 44.6 µM (inactive)
